Results: patent US12479812B2, “Fatty acid derivatives and their use” (THE UNITED STATES OF AMERICA, as represented by the …, priority 2017, dated 2025)

What was measured:
[1] = Incubation under esterification conditions (glycerol on silica gel, 3 days), LC-MS; assay type: physicochemical; details: for esterification with glycerol: free acid in ether with glycerol-coated silica gel, 3 days; for internal lactonization: under the esterification conditions
Description: • A: 10 mM NH4OAc, pH 7.4 • B: Acetonitrile+0.1% formic acid • 0-1.50 min: 5% B • 1.50-2 min: 5-90% B • 2-10 min: 90% B • 10.01-15 min: 5% B • DAD1 254 nm • DAD2 215 nm • Agilent Zorbax XDB-C18 5 μm C18 50×2.0 mm • 0.4 ml/min MS Parameters: Agilent 6120 with Electrospray Ionization • Drying gas flow: 11.0 L/min • Nebulizer pressure: 40 psig • Drying gas temperature: 350 C • Positive capillary voltage: 4000 V • Negative capillary voltage: 3000 V
Approximately 30 mg of silica gel was added to 25 mg of glycerol, and it was then vortexed to coat all of the silica with glycerol, until the admixture was free-flowing. Between 5-10 mg of this material was added to a solution of the free acid in ether, and it was vortexed briefly. The reaction was left for 3 days, then filtered and evaporated under nitrogen. The residue was redissolved in ethanol and analyzed by LC-MS, in both positive and negative modes.

[2] = test system: adult rat dorsal root ganglia (DRG) neurons; assay: Ex vivo CGRP release assay in adult rat sensory neuronal cultures; assay type: cell-based; details: 1 μM; for capsaicin-evoked CGRP release: 30 nM capsaicin; for low-pH-evoked CGRP release: buffer pH adjusted to 6.0
Description: For release experiments, the work was approved by the Animal Care and Use Committee at Indiana University School of Medicine, Indianapolis, IN. Adult rat sensory neuronal cultures were prepared as previously described (Burkey, Hingtgen, and Vasko, Methods in molecular medicine 99, 189, 2004; Kelley et al., PloS one 9, e106485, 2014). Cells were maintained for 10-12 days in F-12 media (Invitrogen, Carlsbad, CA) supplemented with 10% horse serum, 2 mM glutamine, 100 μg/ml normocin™, 50 μg/ml penicillin, 50 μg/ml streptomycin, 50 μM 5-fluoro-2′-deoxyuridine (Invitrogen), 150 μM uridine, and 30 ng/ml of NGF (Harlan Bioproducts for Science, Inc. Indianapolis, IN) in 3% CO2 at 37° C. On the day of the release experiments, cultures were washed with HEPES buffer (25 mM HEPES, 135 mM NaCl, 3.5 mM KCl, 2.5 mM CaCl2, 1 mM MgCl2, 3.3 mM D-glucose, and 0.1% bovine serum albumin, pH 7.4 and maintained at 37° C. Cultures were then incubated with 0.4 ml of the same buffer in the absence or presence of drugs. Basal release was determined by exposing the cells to HEPES buffer alone for 10 min, then to buffer in the presence of mediators for 10 min to ascertain if the compounds stimulated release. Cultures were then exposed to buffer containing 30 nM capsaicin or buffer with the pH adjusted to 6.0 in the absence or presence of mediators. Cells then were re-exposed to HEPES buffer without drugs for a 10 min incubation to reestablish basal release. After each incubation, the buffer was removed to measure the amount of CGRP using radioimmunoassay as previously described (Chen et al., Peptides 17, 31, 1996). At the end of each release experiment, cells were hypotonically lysed by exposing the cultures to 0.1 M HCl for 10 min and an aliquot taken to measure total CGRP content in the cultures using radioimmunoassay. […] Release data are presented in fmol/well of cell/10 min from three independent experiments from separate harvests. Statistical analysis was performed using ANOVA with Tukey's post hoc test.

male Sprague-Dawley rats = assay: Nociceptive (pain) behavior after intradermal hindpaw injection; assay type: in vivo, rat; details: for decrease of C-fiber withdrawal latencies: after intradermal hindpaw injection (11H-12,13E-LA 30 μg), versus vehicle
Description: 11-hydroxy-12,13-trans-epoxy-(9Z)-octadecenoate (30 μg) was injected intradermally into the hindpaw of male Sprague-Dawley rats. Baseline measurements were taken for all tests prior to injection. A-delta and C-fiber mediated hindpaw withdrawal responses were measured as previously described (Mitchell et al., Pain 155, 733, 2014). Briefly, by stimulation of the plantar surface of the paw with a 100 ms laser pulse, producing a rapid withdrawal response. Laser pulses were delivered by an infrared diode laser (LASS-10 M; Lasmed, Mountain View, CA, USA) and calibrated to 3500 mA at 0.5 mm diameter, and delivered from 1 cm distance, C-fiber mediated responses were measured by delivery of a slow temperature ramp to the plantar surface of the hindpaw, with stimulus termination by voluntary withdrawal of the paw. The laser stimulus was adjusted to result in an approximately 10 second withdrawal latency (1000 mA, 13 cm distance).

[3] = test system: murine trigeminal sensory neurons; assay: Ca2+ responses in cultured trigeminal sensory neurons; assay type: cell-based, mouse; details: FIG. 7B
Description: Additionally, murine trigeminal sensory neurons were isolated and cultured in vitro. Fatty acid derivatives were applied to the cultured neurons and any resulting Ca^2+ response was measured in a blinded manner. The assayed compounds include: 11H-12,13E-LA (Compound 1), 11K-12,13E-LA (Compound 2), 11H-9,10E-LA (Compound 3), and 11K-9,10E-LA (Compound 4).

human THP-1 cells = assay: ApoA1 cholesterol efflux screen in THP-1 cells; assay type: cell-based; details: 50 μM; THP-1 cells incubated with ApoA1
Description: Human THP-1 cells were incubated with ApoA1 in the presence of linoleic acid or several different fatty acid derivatives (50 μM) in a blinded manner, and resulting cholesterol efflux was measured (FIG. 9) as previously described (PMID: 26879139).

[4] = test system: freshly isolated human PBMCs; assay: ApoA1 cholesterol efflux screen in freshly isolated PBMCs; assay type: cell-based; details: 50 μM
[5] = test system: tumor necrosis factor (TNF)-alpha secretion, human PBMCs; assay: PBMC cytokine secretion (ELISA): TNF-alpha; assay type: cell-based; details: 100 μM, 24 hours; for LPS-induced TNF-alpha secretion: LPS pre-incubation; for native TNF-alpha secretion: no LPS
Description: (§1) Freshly isolated human PBMCs were pre-incubated (FIGS. 11A and 11C) or not (FIGS. 11B and 11D) with LPS, and then incubated with ferulic acid (“FA,” 100 μM) and 11H-12,13E-LA, 11K-12,13E-LA, PBS, or LPS alone for 24 hours (blinded). Then, the medium concentration of TNF-alpha (FIGS. 11A and 11B) or […] (FIGS. 11C and 11D) was measured using enzyme-linked immunosorbent assay.

[6] = test system: interleukin (IL)-1, human PBMCs; assay: PBMC cytokine secretion (ELISA): IL-1; assay type: cell-based; details: 100 μM; with or without LPS; 24 hours
Description: as §1

female mice (C57BL/6J) = assay: Pruriceptive (itch) behavior, scratching bouts after intradermal injection into nape of neck; assay type: in vivo, mouse; details: for itch-related scratching behavior compared to vehicle: 100 μg (mixture 100 μg of each) intradermal, n=6-8 per group, 30 minutes; for scratching bouts compared to vehicle, pilot testing: n=3 per group, first 30 minutes after intradermal injection; for onset of scratching responses (significantly greater than vehicle) / time of maximum scratching response: 9K-12,13E-LA 100 μg, histamine 50 μg
Description: Hydroxy- and keto-epoxide derivatives of LA (100 μg) or histamine (50 μg) were injected intra-dermally into the nape of neck of the female mice (C57BL/6J from Jackson Laboratory). LA derivatives (9-keto-12,13-epoxy-(10E)-octadecenoate or 13-keto-9,10-epoxy-(11E)-octadecenoate) were injected independently, and in combination (9-keto-12,13-epoxy-(10E)-octadecenoate plus 13-keto-9,10-epoxy-(11E)-octadecenoate (100 μg of each)). Pruriceptive behavior was quantified as the number of scratching bouts assessed over 30 minutes, as previously described (Mishra and Hoon, Science 340, 968, 2013).

[7] = test system: normal mice or a mast cell knock-out mouse; assay: Itch-related scratching in normal and mast cell knock-out mice; assay type: in vivo; details: 100 μg intradermal; 30 minutes
Description: The fatty acid derivative 9K-12,13E-LA (100 μg) was injected intra-dermally into the nape of neck of normal mice or a mast cell knock-out mouse (FIG. 8) in a blinded manner. Pruriceptive behavior was quantified as the number of scratching bouts assessed over 30 minutes, as previously described (Mishra and Hoon, Science 340, 968, 2013).

Which esterification with glycerol [1] does the source give for `CCCCCC(O)/C=C/C1OC1CCCCCCC(C)(C)C(=O)O` (stereo not drawn) [2,2-dimethyl-13-hydroxy-9,10-trans-epoxy-(11E)-octadecenoic acid] here?
Its esterification with glycerol is “resistant to esterification”.

With `CC/C=C\C/C=C\C/C=C\C/C=C\C/C=C\C=C\C(O)CCC(=O)O` (centres unmarked) [4-hydroxy-DHA, reference compound] as the compound, how does the internal lactonization [1] read?
Its internal lactonization is “rapidly undergoes internal lactonization”.

Which “capsaicin-evoked CGRP release” value [2] does the source give for `CCCCCC1OC1C(O)/C=C\CCCCCCCC(=O)O` (stereo not drawn) [11H-12,13E-LA, 11-hydroxy(H)-12,13-trans-epoxy-(E)-octadecenoate] here?
The value was “significantly augmented”.

And the “low-pH-evoked CGRP release” value [2]?
The value was “significantly augmented”.

What about the “decrease of C-fiber withdrawal latencies” value (male Sprague-Dawley rats) of the same compound?
The value was 28%.

What about the “number of trigeminal cells responding, concentration-response” value [3] of the same compound?
Its value is “increase in the number of cells responding”.

And the “ApoA1-mediated monocyte cholesterol efflux” value (human THP-1 cells)?
The value was “inhibited”.

What about the “ApoA1-mediated monocyte cholesterol efflux” value [4] of the same compound?
The value was “inhibited”.

What about the “LPS-induced TNF-alpha secretion” value [5] of the same compound?
The value was “inhibits”.

What about the “native TNF-alpha secretion” value [5] of the same compound?
Its value is “inhibits”.

What about the IL-1 secretion [6] of the same compound?
Its IL-1 secretion is “has no effect”.

For `CCCCCC(O)/C=C/C1OC1CCCCCCCC(=O)O` (stereo not drawn) [13H-9,10E-LA, 13-hydroxy(H)-9,10-trans-epoxy-(E)-octadecenoate], which “capsaicin-evoked CGRP release” value [2] is on record?
The value was “had no effect”.

What about the “low-pH-evoked CGRP release” value [2] of the same compound?
Its value is “significantly augmented”.

What does the source list for `CCCCCC1OC1/C=C/C(O)CCCCCCCC(=O)O` (stereo not drawn) [9H-12,13E-LA, 9-hydroxy(H)-12,13-trans-epoxy-(E)-octadecenoate]?
capsaicin-evoked CGRP release [2]: Neither 9H-12,13E-LA, nor any of the tested keto-epoxy-octadecenoates, augmented; low-pH-evoked CGRP release [2]: Neither 9H-12,13E-LA, nor any of the tested keto-epoxy-octadecenoates, augmented

Which results are given for `CC/C=C\C/C=C\C/C=C\C/C=C\C/C=C\C=C\C(O)CC(C)(C)C(=O)O` (centres unmarked) [2,2-dimethyl-4-hydroxy-DHA]?
esterification with glycerol [1]: resistant to esterification, including internal lactonization; internal lactonization [1]: did not lactonize

Which “direct stimulation of CGRP release” value ([2]; neutral pH) does the source give for `CCCCC[C@H](O)/C=C/[C@H]1[C@H](O)CC(=O)[C@@H]1C/C=C\CCCC(=O)O` [PGE2, prostaglandin E2, reference compound] here?
The value was “neither PGE2 nor any of the other tested compounds directly stimulated”.

And the “capsaicin-evoked CGRP release” value [2]?
Its value is “significantly augmented”.

And the “low-pH-evoked CGRP release” value [2]?
The value was “significantly augmented”.

And the “proportion of withdrawal responses following Aδ fiber laser stimulation” value (male Sprague-Dawley rats; after intradermal hindpaw injection)?
The value was “significantly enhanced”.

And the “decrease of C-fiber withdrawal latencies” value (male Sprague-Dawley rats)?
Its value is 46%.

With `CCCCCC(=O)/C=C/C1OC1CCCCCCCC(=O)O` (stereo not drawn) [13K-9,10E-LA, 13-keto(K)-9,10-trans-epoxy-(E)-octadecenoate] as the compound, how does the “itch-related scratching behavior compared to vehicle” value (female mice (C57BL/6J)) read?
The value was “no response”.

And the “scratching bouts compared to vehicle, pilot testing” value (female mice (C57BL/6J))?
Its value is “appeared to increase scratching bouts”.

Which “ApoA1-mediated monocyte cholesterol efflux” value (human THP-1 cells) does the source give for “9-hydroxy-octadecadienoic acid [reference compound]” here?
Its value is “increased”.

Which results are given for `NCCc1c[nH]cn1` [histamine, reference compound]?
onset of scratching responses (significantly greater than vehicle) (female mice (C57BL/6J)): ≤ 5 min; time of maximum scratching response (female mice (C57BL/6J)): 5 to 10 min

With `CCCCCC1OC1C(=O)/C=C\CCCCCCCC(=O)O` (stereo not drawn) [11K-12,13E-LA, 11-keto(K)-12,13-trans-epoxy-(E)-octadecenoate] as the compound, how does the “ApoA1-mediated monocyte cholesterol efflux” value (human THP-1 cells) read?
Its value is “inhibited”.

What about the “ApoA1-mediated monocyte cholesterol efflux” value [4] of the same compound?
The value was “inhibited”.

What about the “LPS-induced TNF-alpha secretion” value [5] of the same compound?
Its value is “inhibits”.

What about the “native TNF-alpha secretion” value [5] of the same compound?
The value was “inhibits”.

What about the IL-1 secretion [6] of the same compound?
Its IL-1 secretion is “has no effect”.

Which “itch-related scratching behavior compared to vehicle” value (female mice (C57BL/6J)) does the source give for `CCCCCC1OC1/C=C/C(=O)CCCCCCCC(=O)O` (stereo not drawn) [9K-12,13E-LA, 9-keto(K)-12,13-trans-epoxy-(E)-octadecenoate] here?
The value was “induced itch-related scratching behavior”.

And the “onset of scratching responses (significantly greater than vehicle)” value (female mice (C57BL/6J))?
The value was “slower onset”.

And the “time of maximum scratching response” value (female mice (C57BL/6J))?
Its value is 10 to 15 min.

What about the “scratching bouts compared to vehicle, pilot testing” value (female mice (C57BL/6J)) of the same compound?
The value was “appeared to increase scratching bouts”.

What about the “scratching responses in mast cell knockout mice” value [7] of the same compound?
Its value is “increased scratching responses”.

And the “scratching responses in wild type mice” value [7]?
The value was “increased scratching responses”.

Which “ApoA1-mediated monocyte cholesterol efflux” value (human THP-1 cells) does the source give for `CCCCC/C=C\C/C=C\CCCCCCCC(=O)O` [Linoleic acid, reference compound] here?
Its value is “increased cholesterol efflux”.

For `CCCCC/C=C\C(O)C1OC1CCCCCCCC(=O)O` (stereo not drawn) [11H-9,10E-LA, 11-hydroxy(H)-9,10-trans-epoxy-(E)-octadecenoate], which “capsaicin-evoked CGRP release” value [2] is on record?
Its value is “significantly augmented”.

What about the “low-pH-evoked CGRP release” value [2] of the same compound?
Its value is “significantly augmented”.

And the “number of trigeminal cells responding, concentration-response” value [3]?
The value was “increase in the number of cells responding”.

Which results are given for `CC/C=C\C/C=C\C/C=C\C/C=C\C/C=C\C=C\C(O)CC(C)C(=O)O` (centres unmarked) [2-methyl-4-hydroxy-DHA]?
esterification with glycerol [1]: resistant to glycerol esterification; internal lactonization [1]: competitive lactonization
